Patent US7048926B2, “Methods of agonizing and antagonizing FabK” (priority 2000, dated 2006)
In brackets after ≈: the same amount, converted by molar mass. Like-named read-outs stand apart in the source and are kept apart here.

Columns and labels:
[1] = biological target: T1, S. pneumoniae FabK (Streptococcus pneumoniae, UniProt Q9FBC5, T318A); assay: FabK enoyl-ACP reductase assay (NADH oxidation at 340 nm); type: biochemical; details: for inhibition of FabK (in words): 25 uM crotonoyl ACP, 50 uM NADH, 1.25 nM enzyme
T1 construct: made in house
Experimental: FabK catalyses the reduction of enoyl-ACPs with the concommitant oxidation of NADH. Crotonoyl-ACP can be prepared as described below. The reduction of crotonoyl-ACP to butyryl-ACP can be monitored by following the change in absorbance at 340 nm as NADH is oxidised.
(§1) Assays were carried out in Costar 3696 half-area plates in a final assay volume of 150 ul on a Spectramax platereader. Substrates, NADH and crotonoyl ACP, were incubated with FabK enzyme in 100 mM N-[2-acetamido]-2 irminodiacetic acid (ADA), pH 6.5, 100 mM NH4Cl, 4% glycerol at 30° C. and the reaction monitored at 340 nm. This assaying can also be performed using crotonyl CoA, NADPH or an NADH analogue as a substrate.
(§2) Using the above assay, compounds can be tested for inhibition of FabK. 30 ul of a candidate compounds is added to a well of the plate. 30 ul of a 250 uM stock of NADH is then added to the well. 60 ul of a 67.5 uM stock of Crotonoyl ACP is added to the well. The plate is incubated at 30° C. for 5 min. 30 ul of a 6.25 nM stock of enzyme is then added to the well (also preincubated at 30° C.) to initiate the reaction. The plate is then monitored at A340 nm for 30 min at 30° C. Positive controls are reactions without compound. Negative controls are reactions without enzyme and without compound. Final concentrations in the assay mixture are 25 uM crotonoyl ACP, 50 uM NADH, 1.25 nM enzyme.

[2] = system: FabI; assay: FabI assay, enzyme source not stated; type: biochemical
Experimental: (§3) FabI catalyses the reduction of enoyl-ACPs with the concommitant oxidation of NAD(P)H. Crotonoyl-ACP can be prepared as described in patent applications numbered PCT/US00/12104 and EP1997000306506. The reduction of enoyl-ACPs can be monitored by following the change in absorbance at 340 nm as NADH is oxidised. Enoyl ACPs (eg crotonoyl-ACP) can be replaced by enoyl-CoAs (eg crotonoyl-CoA)
as §1, with “FabI” for “FabK”, “iminodiacetic” for “irminodiacetic”, “6.5,” for “6.5, 100 mM NH4Cl,”, “substrate, or using a substrate suitable for FabK, such as those described above.” for “substrate.”
as §2, with “FabI.” for “FabK.”, “Negative controls are reactions without enzyme and without compound. Final concentrations in the assay mixture are 25 uM crotonoyl ACP, 50 uM NADH, 1.25 nM enzyme.” left out

[3] = system: E. faecalis 7; assay: Antibacterial MIC; type: cell-based
[4] = system: S. pneumoniae N1387; assay: Antibacterial MIC; type: cell-based; details: Streptococcus pneumoniae
[5] = system: H. influenzae NEMC1; assay: Antibacterial MIC; type: cell-based; details: Haemophilus influenzae
[6] = system: S. pneumoniae ERY2; assay: Antibacterial MIC; type: cell-based; details: Streptococcus pneumoniae, ERY2, read-out: Antibacterial MIC
[7] = system: S. pneumoniae 1629; assay: Antibacterial MIC; type: cell-based
[8] = system: S. aureus WCUH29; assay: Antibacterial MIC; type: cell-based; details: Staphylococcus aureus
[9] = system: E. coli AcrAB^−; assay: Antibacterial MIC; type: cell-based; details: Escherichia coli, read-out: Antibacterial MIC
[10] = system: S. aureus Oxford; assay: Antibacterial MIC; type: cell-based; details: Staphylococcus aureus, read-out: Antibacterial MIC
[11] = system: E. faecalis 1; assay: Antibacterial MIC; type: cell-based; details: Enterococcus faecalis, 1, read-out: Antibacterial MIC
[12] = biological target: E. coli FabI (Escherichia coli, UniProt P0AEK4); assay: FabI assay, E. coli enzyme; type: biochemical
Experimental: as §3
as §1, with “FabI” for “FabK”, “iminodiacetic” for “irminodiacetic”, “6.5,” for “6.5, 100 mM NH4Cl,”, “substrate, or using a substrate suitable for FabK, such as those described above.” for “substrate.”
as §2, with “FabI.” for “FabK.”, “Negative controls are reactions without enzyme and without compound. Final concentrations in the assay mixture are 25 uM crotonoyl ACP, 50 uM NADH, 1.25 nM enzyme.” left out

[13] = system: M. catarrhalis; assay: Antibacterial MIC; type: cell-based; details: Moraxella catarrhalis, read-out: Antibacterial MIC
[14] = system: H. influenzae Q1; assay: Antibacterial MIC; type: cell-based; details: Haemophilus influenzae
[15] = biological target: S. aureus FabI (Staphylococcus aureus, UniProt Q6GI75); assay: FabI assay, S. aureus enzyme; type: biochemical
Experimental: as §3
as §1, with “FabI” for “FabK”, “iminodiacetic” for “irminodiacetic”, “6.5,” for “6.5, 100 mM NH4Cl,”, “substrate, or using a substrate suitable for FabK, such as those described above.” for “substrate.”
as §2, with “FabI.” for “FabK.”, “Negative controls are reactions without enzyme and without compound. Final concentrations in the assay mixture are 25 uM crotonoyl ACP, 50 uM NADH, 1.25 nM enzyme.” left out

T1 sequence (Q9FBC5 whole entry T318A): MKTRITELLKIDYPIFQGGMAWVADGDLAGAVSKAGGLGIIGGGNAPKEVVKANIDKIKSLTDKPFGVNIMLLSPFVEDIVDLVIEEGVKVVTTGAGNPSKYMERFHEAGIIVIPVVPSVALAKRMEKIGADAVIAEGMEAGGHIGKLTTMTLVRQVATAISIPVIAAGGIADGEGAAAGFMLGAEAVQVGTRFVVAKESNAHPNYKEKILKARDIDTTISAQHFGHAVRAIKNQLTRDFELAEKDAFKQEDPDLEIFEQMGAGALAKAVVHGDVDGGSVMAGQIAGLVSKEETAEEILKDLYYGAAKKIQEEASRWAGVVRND
Chain of S. aureus FabI (Q6GI75 whole entry): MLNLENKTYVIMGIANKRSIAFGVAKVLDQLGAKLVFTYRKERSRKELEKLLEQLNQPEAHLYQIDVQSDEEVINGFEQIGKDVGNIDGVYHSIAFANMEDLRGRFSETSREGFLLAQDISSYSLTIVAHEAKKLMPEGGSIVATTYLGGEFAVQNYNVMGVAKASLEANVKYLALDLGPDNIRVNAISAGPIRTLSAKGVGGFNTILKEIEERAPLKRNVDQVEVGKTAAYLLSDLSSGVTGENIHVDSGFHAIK
Chain of E. coli FabI (P0AEK4 whole entry): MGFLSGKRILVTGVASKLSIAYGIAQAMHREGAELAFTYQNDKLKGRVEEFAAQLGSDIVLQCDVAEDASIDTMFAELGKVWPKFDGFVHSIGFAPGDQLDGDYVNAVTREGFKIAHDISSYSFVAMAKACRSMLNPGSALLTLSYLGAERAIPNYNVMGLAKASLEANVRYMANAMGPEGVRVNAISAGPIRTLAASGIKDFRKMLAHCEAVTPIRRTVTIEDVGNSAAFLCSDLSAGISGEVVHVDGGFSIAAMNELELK

With `CN(Cc1cn(C)c2ccccc12)C(=O)/C=C/c1cnc2c(c1)CCC(=O)N2` [Formula I] the “inhibition of FabK (in words)” value [1] was “inhibit” and the “inhibition of FabI (in words)” value [2] was “inhibit”.

With `CN(Cc1cn(C)c2ccccc12)C(=O)/C=C/c1cnc2c(c1)CCC(=O)N2` [SB-611113] the MIC ([3]; Enterococcus faecalis, 7, read-out: Antibacterial MIC) was 16 µg/mL (≈ 42.7 µM), the MIC ([4]; N1387, read-out: Antibacterial MIC) was 16 µg/mL (≈ 42.7 µM) and the MIC ([5]; NEMC1, read-out: Antibacterial MIC) was 32 µg/mL (≈ 85.5 µM). The MIC [6] was 8 µg/mL (≈ 21.4 µM), the MIC ([7]; Streptococcus pneumoniae, 1629, read-out: Antibacterial MIC) was 8 µg/mL (≈ 21.4 µM) and the MIC ([8]; WCUH29, read-out: Antibacterial MIC) was ≤ 0.06 µg/mL. The IC50 [1] was 5.7 µM, the MIC [9] was 8 µg/mL (≈ 21.4 µM) and the MIC [10] was ≤ 0.06 µg/mL. The MIC [11] was 16 µg/mL (≈ 42.7 µM), the IC50 [12] was < 0.06 µM and the MIC [13] was ≤ 0.06 µg/mL. It also gave an MIC ([14]; Q1, read-out: Antibacterial MIC) of 16 µg/mL (≈ 42.7 µM) and an IC50 [15] of 0.1 µM.

`Cc1[nH]c2ccccc2c1CN(C)C(=O)/C=C/c1cnc2c(c1)CCC(=O)N2` [Formula II] was tested, and the “inhibition of FabK (in words)” value [1] was “inhibit” and the “inhibition of FabI (in words)” value [2] was “inhibit”.

With `Cl.N` [NH4^+] the “activation of FabK reaction over the reaction with no monovalent cations” value ([1]; NH4^+ at 100 mM) was “about 300 fold”.

In the case of `Cc1[nH]c2ccccc2c1CN(C)C(=O)/C=C/c1cnc2c(c1)CCC(=O)N2` [SB-641197], the MIC ([3]; Enterococcus faecalis, E. faecalis 7, read-out: Antibacterial MIC) is reported as 16 µg/mL (≈ 42.7 µM), the MIC ([4]; S. pneumoniae N1387, read-out: Antibacterial MIC) is reported as 16 µg/mL (≈ 42.7 µM) and the MIC ([5]; H. influenzae NEMC1, read-out: Antibacterial MIC) is reported as 2 µg/mL (≈ 5.34 µM). The MIC [6] was 8 µg/mL (≈ 21.4 µM), the MIC ([7]; Streptococcus pneumoniae, S. pneumoniae 1629, read-out: Antibacterial MIC) was 8 µg/mL (≈ 21.4 µM) and the MIC ([8]; S. aureus WCUH29, read-out: Antibacterial MIC) was ≤ 0.06 µg/mL. For the same compound, the IC50 [1] was 5.2 µM, the MIC [9] was 0.5 µg/mL (≈ 1.34 µM) and the MIC [10] was ≤ 0.06 µg/mL. For the same compound, the MIC [11] was 16 µg/mL (≈ 42.7 µM), the MIC ([13]; M. catarrhalis) was ≤ 0.06 µg/mL and the MIC ([14]; H. influenzae Q1, read-out: Antibacterial MIC) was 1 µg/mL (≈ 2.67 µM).
